Laboratory results published in patent publication US10000501B2, “Inhibitors of HIF prolyl hydroxylase” (MERCK SHARP & DOHME CORP., priority 2014, dated 2018).

Target: T1, human HIF-PHD2 (Homo sapiens, UniProt Q9GZT9)
T1 construct: FLAG-tagged full length PHD2 expressed in and purified from baculovirus-infected Sf9 cells; FLAG; made in house; host or cells: baculovirus-infected Sf9 cells
Assay: HIF-PHD2 inhibition assay (hydroxylation of HIF-1α peptide, time resolved fluorescence)
Format: biochemical
Conditions: FLAG-tagged full length PHD2; 0.2 μM 2-oxoglutarate, 0.5 μM HIF-1α peptide
Method: To each well of a 384-well plate, 1 μL of test compounds in DMSO (final concentration ranging from 0.3 nM to 10 uM) were added into 20 μl of assay buffer (50 mM Tris pH 7.4/0.01% Tween-20/0.1 mg/ml bovine serum albumin/10 μM ferrous sulfate/1 mM sodium ascorbate/20 μg/ml catalase) containing 0.15 μg/ml FLAG-tagged full length PHD2 expressed in and purified from baculovirus-infected Sf9 cells. […] Purif.

T1 sequence (Q9GZT9 whole entry): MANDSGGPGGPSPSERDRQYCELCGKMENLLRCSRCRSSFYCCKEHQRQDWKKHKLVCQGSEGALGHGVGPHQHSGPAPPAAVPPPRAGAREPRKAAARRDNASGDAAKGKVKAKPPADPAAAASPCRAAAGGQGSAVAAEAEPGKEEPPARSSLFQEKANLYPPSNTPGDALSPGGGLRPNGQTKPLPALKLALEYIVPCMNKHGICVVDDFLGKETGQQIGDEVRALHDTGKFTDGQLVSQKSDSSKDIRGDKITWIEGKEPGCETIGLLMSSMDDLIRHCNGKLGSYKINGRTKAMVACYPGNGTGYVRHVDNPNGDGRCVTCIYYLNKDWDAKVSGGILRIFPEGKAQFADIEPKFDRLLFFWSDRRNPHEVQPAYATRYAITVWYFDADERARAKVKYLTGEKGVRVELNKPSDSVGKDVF

SMILES	IC50
CN1Cc2c(c(O)c(C(=O)NCC(=O)O)c(=O)n2Cc2ccc(S(C)(=O)=O)cc2)CC1=O [Example 71, 2-(4-hydroxy-7-methyl-1-(4-(methylsulfonyl)benzyl)-2,6-dioxo-1,2,5,6,7,8-hexahydro-1,7-naphthyridine-3-carboxamido)acetic acid]	19 nM
CN1Cc2c(c(O)c(C(=O)NCC(=O)O)c(=O)n2Cc2cccc(C#N)c2)CC1=O [Example 73, 2-(1-(3-cyanobenzyl)-4-hydroxy-7-methyl-2,6-dioxo-1,2,5,6,7,8-hexahydro-1,7-naphthyridine-3-carboxamido)acetic acid]	17.2 nM
CN1Cc2c(c(O)c(C(=O)NCC(=O)O)c(=O)n2Cc2ccc(C#N)cc2)CC1=O [Example 74, 2-(1-(4-cyanobenzyl)-4-hydroxy-7-methyl-2,6-dioxo-1,2,5,6,7,8-hexahydro-1,7-naphthyridine-3-carboxamido)acetic acid]	7.5 nM
CN1Cc2c(c(O)c(C(=O)NCC(=O)O)c(=O)n2Cc2ccccc2Cl)CC1=O [Example 76, 2-(1-(2-chlorobenzyl)-4-hydroxy-7-methyl-2,6-dioxo-1,2,5,6,7,8-hexahydro-1,7-naphthyridine-3-carboxamido)acetic acid]	10.6 nM
O=C(O)CNC(=O)c1c(O)c2c(n(Cc3ccc(C(F)(F)F)cc3)c1=O)NCCC2 [Example 78, 2-(4-Hydroxy-2-oxo-1-(4-(trifluoromethyl)benzyl)-1,2,5,6,7,8-hexahydro-1,8-naphthyridine-3-carboxamido)acetic acid]	70 nM
O=C(O)CNC(=O)c1c(O)c2c(n(Cc3cnc(-c4ccccc4)s3)c1=O)C1CCC2C1 (centres unmarked) [Example 84, 2-(-4-hydroxy-2-oxo-1-((2-phenylthiazol-5-yl)methyl)-1,2,5,6,7,8-hexahydro-5,8-methanoquinoline-3-carboxamido)acetic acid]	19 nM

The remaining compounds from weak to strong by IC50, led by results:

IC50	SMILES
61 nM	O=C(O)CNC(=O)c1c(O)c2c(n(Cc3nc(-c4ccccc4)cs3)c1=O)C1CCC2C1 (centres unmarked) [Example 85, 2-(-4-hydroxy-2-oxo-1-((4-phenylthiaozl-2-yl)methyl)-1,2,5,6,7,8-hexahydro-5,8-methanoquinoline-3-carboxamido)acetic acid]
46.1 nM	CN1CCc2c(c(O)c(C(=O)NCC(=O)O)c(=O)n2Cc2ccc(C(F)(F)F)cc2)C1 [Example 81, 2-(4-Hydroxy-6-methyl-2-oxo-1-(4-(trifluoromethyl)benzyl)-1,2,5,6,7,8-hexahydro-1,6-naphthyridine-3-carboxamido)acetic acid]
46 nM	O=C(O)CNC(=O)c1c(O)c2c(n(Cc3ccc(C(F)(F)F)cc3)c1=O)C1CCC2C1 (centres unmarked) [Example 83, 2-(-4-hydroxy-2-oxo-1-(4-(trifluoromethyl)benzyl)-1,2,5,6,7,8-hexahydro-5,8-methanoquinoline-3-carboxamide)acetic acid]
32 nM	O=C(O)CNC(=O)c1c(O)c2c(n(Cc3ccc(C(F)(F)F)cc3)c1=O)CN(Cc1ccccc1)CC2 [Example 80, 2-(7-Benzyl-4-hydroxy-2-oxo-1-(4-(trifluoromethyl)benzyl)-1,2,5,6,7,8-hexahydro-1,7-naphthyridine-3-carboxamido)acetic acid]
28.7 nM	CN1Cc2c(c(O)c(C(=O)NCC(=O)O)c(=O)n2Cc2ccc(F)cc2F)CC1=O [Example 72, 2-(1-(2,4-difluorobenzyl)-4-hydroxy-7-methyl-2,6-dioxo-1,2,5,6,7,8-hexahydro-1,7-naphthyridine-3-carboxamido)acetic acid]
